Columns and labels:
human σ2/TMEM97 receptor = target: T1, human σ2/TMEM97 receptor (Homo sapiens, UniProt Q5BJF2); experiment: Binding assay to human σ2/TMEM97 receptor ([3H]-DTG, transfected HEK-293 membranes); settings: class scale, read-out: Binding σ-2 Ki
T1 construct: expressed in transfected cells; host or cells: HEK-293
Outline: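 Membranes (15 μg) from transfected HEK-293 incubated 120 min at 25 °C with 10 nM [3H]-DTG in 50 mM Tris-HCl pH 8.0; nonspecific binding with 10 μM haloperidol. Filtration and scintillation counting; % inhibition at 1 or 10 μM, or Ki from five concentrations.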

human σ1 receptor = target: T2, human σ1 receptor (Homo sapiens, UniProt Q99720); experiment: Human σ1 receptor radioligand assay ([3H](+)-pentazocine, transfected HEK-293 membranes); settings: class scale, read-out: Binding σ-1 Ki
T2 construct: expressed in transfected cells; host or cells: HEK-293
Outline: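 Membranes (7 μg) from transfected HEK-293 cells were incubated with 5 nM [3H](+)-pentazocine in 50 mM Tris-HCl, pH 8, for 120 minutes at 37° C, with 10 μM haloperidol defining non-specific binding. Bound radioactivity was filtered and counted by scintillation. Results are % inhibition at 1 or 10 μM or Ki from five concentrations.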

T1 sequence (Q5BJF2 whole entry): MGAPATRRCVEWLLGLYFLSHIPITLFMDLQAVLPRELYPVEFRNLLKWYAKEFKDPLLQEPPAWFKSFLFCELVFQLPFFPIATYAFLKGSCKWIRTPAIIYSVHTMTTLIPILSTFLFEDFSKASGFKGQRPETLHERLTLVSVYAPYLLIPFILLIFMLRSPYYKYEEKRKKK
T2 sequence (Q99720 whole entry): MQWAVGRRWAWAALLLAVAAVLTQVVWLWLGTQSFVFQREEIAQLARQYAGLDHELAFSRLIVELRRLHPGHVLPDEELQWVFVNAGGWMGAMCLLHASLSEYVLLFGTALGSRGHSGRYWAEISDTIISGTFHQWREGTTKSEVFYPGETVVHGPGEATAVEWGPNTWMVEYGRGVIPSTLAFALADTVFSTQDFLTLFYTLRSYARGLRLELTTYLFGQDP

SMILES	Ki (human σ2/TMEM97 receptor) [nM]	Ki (human σ1 receptor) [nM]
Cc1conc1-c1nn(C)c(Cl)c1C(=O)N1CCC2(CCN(CCC(C)(C)C)CC2)CC1 [Example 100, (5-Chloro-1-methyl-3-(4-methylisoxazol-3-yl)-1H-pyrazol-4-yl)(9-(3,3-dimethylbutyl)-3,9-diazaspiro[5.5]undecan-3-yl)methanone]	< 100	500 to 1000
Cc1cc(-c2nn(-c3ccccc3)c(Cl)c2C(=O)N2CCC3(CCN(CCC(C)(C)C)CC3)CC2)no1 [Example 101, (5-Chloro-3-(5-methylisoxazol-3-yl)-1-phenyl-1H-pyrazol-4-yl)(9-(3,3-dimethylbutyl)-3,9-diazaspiro[5.5]undecan-3-yl)methanone]	< 100	< 100
COc1cccc(-c2nn(C)c(Cl)c2C(=O)N2CCC3(CCN(CCC(C)(C)C)CC3)CC2)n1 [Example 102, (5-Chloro-3-(6-methoxypyridin-2-yl)-1-methyl-1H-pyrazol-4-yl)(9-(3,3-dimethylbutyl)-3,9-diazaspiro[5.5]undecan-3-yl)methanone]	< 100	100 to 500
Cc1conc1-c1nn(C)c(Cl)c1C(=O)N1CCCC2(CCN(CCC(C)(C)C)CC2)C1 [Example 103, (5-Chloro-1-methyl-3-(4-methylisoxazol-3-yl)-1H-pyrazol-4-yl)(9-(3,3-dimethylbutyl)-2,9-diazaspiro[5.5]undecan-2-yl)methanone]	< 100	500 to 1000
Cc1cc(-c2nn(C)c(Cl)c2C(=O)N2CC3(CCN(CCC(C)(C)C)CC3)C2)no1 [Example 104, (5-Chloro-1-methyl-3-(5-methylisoxazol-3-yl)-1H-pyrazol-4-yl)(7-(3,3-dimethylbutyl)-2,7-diazaspiro[3.5]nonan-2-yl)methanone]	100 to 500	100 to 500
Cc1cc(-c2nn(C)c(Cl)c2C(=O)N2CCC3(CN(CCC(C)(C)C)C3)C2)no1 [Example 105, (5-Chloro-1-methyl-3-(5-methylisoxazol-3-yl)-1H-pyrazol-4-yl)(2-(3,3-dimethylbutyl)-2,6-diazaspiro[3.4]octan-6-yl)methanone]	100 to 500	> 1000
Cc1cc(-c2nn(C)c(Cl)c2C(=O)NC2CC3(CCN(CCC(C)(C)C)CC3)C2)no1 [Example 106, 5-Chloro-N-(7-(3,3-dimethylbutyl)-7-azaspiro[3.5]nonan-2-yl)-1-methyl-3-(5-methylisoxazol-3-yl)-1H-pyrazole-4-carboxamide]	< 100	100 to 500
Cc1cc(-c2nn(C)c(Cl)c2C(=O)NC2CCC3(CC2)CCN(CCC(C)(C)C)CC3)no1 [Example 107, 5-Chloro-N-(3-(3,3-dimethylbutyl)-3-azaspiro[5.5]undecan-9-yl)-1-methyl-3-(5-methylisoxazol-3-yl)-1H-pyrazole-4-carboxamide]	< 100	100 to 500
Cc1cc(-c2nn(C)c(Cl)c2C(=O)N2CCC[C@@H](NCCC(C)C)C2)no1 [Example 108, (R)-(5-Chloro-1-methyl-3-(5-methylisoxazol-3-yl)-1H-pyrazol-4-yl)(3-(isopentylamino)piperidin-1-yl)methanone]	> 1000	100 to 500
Cc1cc(-c2nn(C)c(Cl)c2C(=O)N2CCC[C@H](NCCC(C)C)C2)no1 [Example 109, (S)-(5-Chloro-1-methyl-3-(5-methylisoxazol-3-yl)-1H-pyrazol-4-yl)(3-(isopentylamino)piperidin-1-yl)methanone]	> 1000	> 1000
Cc1cc(-c2nn(C)c(Cl)c2C(=O)N2CCCCC(N(C)CCc3ccccc3)C2)no1 (centres unmarked) [Example 110, (5-Chloro-1-methyl-3-(5-methylisoxazol-3-yl)-1H-pyrazol-4-yl)(3-(methyl(phenethyl)amino)azepan-1-yl)methanone]	100 to 500	500 to 1000
Cc1cc(-c2nn(C)c(Cl)c2C(=O)N2CCCCC(N(C)CCC(C)C)C2)no1 (centres unmarked) [Example 111, (5-Chloro-1-methyl-3-(5-methylisoxazol-3-yl)-1H-pyrazol-4-yl)(3-(isopentyl(methyl)amino)azepan-1-yl)methanone]	500 to 1000	100 to 500
Cc1cc(-c2nn(C)c(Cl)c2C(=O)N2CCC3(CCN(CC(=O)N4CCCCC4)CC3)CC2)no1 [Example 112, 2-(9-(5-Chloro-1-methyl-3-(5-methylisoxazol-3-yl)-1H-pyrazole-4-carbonyl)-3,9-diazaspiro[5.5]undecan-3-yl)-1-(piperidin-1-yl)ethanone]	100 to 500	> 1000
Cc1cc(-c2nn(C)c(Cl)c2C(=O)N2CCC3(CCN(CC(=O)N4CCC(F)(F)CC4)CC3)CC2)no1 [Example 113, 2-(9-(5-Chloro-1-methyl-3-(5-methylisoxazol-3-yl)-1H-pyrazole-4-carbonyl)-3,9-diazaspiro[5.5]undecan-3-yl)-1-(4,4-difluoropiperidin-1-yl)ethanone]	100 to 500	> 1000
Cc1cc(-c2nn(C)c(Cl)c2CN2CCC3(CCN(CCC(C)(C)C)CC3)C2=O)no1 [Example 114, 2-((5-Chloro-1-methyl-3-(5-methylisoxazol-3-yl)-1H-pyrazol-4-yl)methyl)-8-(3,3-dimethylbutyl)-2,8-diazaspiro[4.5]decan-1-one]	100 to 500	100 to 500
Cc1cc(-c2nn(C)c(Cl)c2CN2CCC3(CCN(CCC(C)(C)C)CC3)CC2=O)no1 [Example 115, 3-((5-Chloro-1-methyl-3-(5-methylisoxazol-3-yl)-1H-pyrazol-4-yl)methyl)-9-(3,3-dimethylbutyl)-3,9-diazaspiro[5.5]undecan-2-one]	< 100	100 to 500
Cc1cc(-c2nn(C)c(Cl)c2CN2CC3(CCN(CCC(C)(C)C)CC3)CC2=O)no1 [Example 116, 2-((5-Chloro-1-methyl-3-(5-methylisoxazol-3-yl)-1H-pyrazol-4-yl)methyl)-8-(3,3-dimethylbutyl)-2,8-diazaspiro[4.5]decan-3-one]	< 100	100 to 500
Cc1cc(-c2nn(C)c(Cl)c2CN2CCCCC(NCCC(C)C)C2=O)no1 (centres unmarked) [Example 117, 1-((5-Chloro-1-methyl-3-(5-methylisoxazol-3-yl)-1H-pyrazol-4-yl)methyl)-3-(isopentylamino)azepan-2-one]	> 1000	100 to 500
Cc1cc(-c2nn(C)c(Cl)c2CN2CCCC(NCCC(C)C)CC2=O)no1 (centres unmarked) [Example 118, 1-((5-Chloro-1-methyl-3-(5-methylisoxazol-3-yl)-1H-pyrazol-4-yl)methyl)-4-(isopentylamino)azepan-2-one]	100 to 500	> 1000
Cc1cc(-c2nn(C)c(Cl)c2CCN2CCCC[C@H](NCCC(C)C)C2)no1 [Example 119, (S)-1-(2-(5-Chloro-1-methyl-3-(5-methylisoxazol-3-yl)-1H-pyrazol-4-yl)ethyl)-N-isopentylazepan-3-amine]	100 to 500	< 100
Cc1cc(-c2nn(C)c(Cl)c2CC(=O)N2CCC3(CCN(CCC(C)C)CC3)CC2)no1 [Example 120]	< 100	100 to 500
Cc1cc(-c2nn(C)c(Cl)c2C(=O)N2CCCC(CN(C)CCC(C)(C)C)C2)no1 (centres unmarked) [Example 121, (5-Chloro-1-methyl-3-(5-methylisoxazol-3-yl)-1H-pyrazol-4-yl)(3-(((3,3-dimethylbutyl)(methyl)amino)methyl)piperidin-1-yl)methanone]	100 to 500	100 to 500
